Results published in ChEMBL document CHEMBL1201862, “PubChem BioAssay data set” (2004).
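96-well plates; 48 h exposure; 5 concentrations. Endpoints by linear interpolation between flanking doses. Not reached: highest tested concentration assigned. GI50 marks 50% less growth.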 Active and inactive are the calls of the source. Rule as the data show it: active = GI50 up to about 1.1 µM and inactive = higher.

Experiments:
Assay in all cases: growth of human tumour cells (NCI), 48 h
HCT-15 = tested on: HCT-15
UO-31 = tested on: UO-31
RPMI-8226 = tested on: RPMI-8226
K562 = tested on: K562
SK-MEL-28 = tested on: SK-MEL-28
HT-29 = tested on: HT-29
Malme-3M = tested on: Malme-3M
A498 = tested on: A498
PC-3 = tested on: PC-3
DU-145 = tested on: DU-145
M14 = tested on: M14
MDA-MB-231 = tested on: MDA-MB-231
NCI-H522 = tested on: NCI-H522
NCI/ADR-RES = tested on: NCI/ADR-RES
HOP-62 = tested on: HOP-62
U-251 = tested on: U-251
SW-620 = tested on: SW-620
MOLT-4 = tested on: MOLT-4
SK-MEL-5 = tested on: SK-MEL-5
CAKI-1 = tested on: CAKI-1
IGROV-1 = tested on: IGROV-1
UACC-257 = tested on: UACC-257
NCI-H23 = tested on: NCI-H23
MDA-MB-435 = tested on: MDA-MB-435
OVCAR-8 = tested on: OVCAR-8
SF-539 = tested on: SF-539
OVCAR-5 = tested on: OVCAR-5
MCF7 = tested on: MCF7
SNB-19 = tested on: SNB-19
EKVX = tested on: EKVX
ACHN = tested on: ACHN
Hs-578T = tested on: Hs-578T
HOP-92 = tested on: HOP-92
SK-MEL-2 = tested on: SK-MEL-2
UACC-62 = tested on: UACC-62
HL-60 = tested on: HL-60
SNB-75 = tested on: SNB-75
COLO 205 = tested on: COLO 205
SN12C = tested on: SN12C
HCC 2998 = tested on: HCC 2998
BT-549 = tested on: BT-549
TK-10 = tested on: TK-10
SF-295 = tested on: SF-295
MDA-N = tested on: MDA-N
SK-OV-3 = tested on: SK-OV-3
RXF 393 = tested on: RXF 393
KM12 = tested on: KM12
LOX IMVI = tested on: LOX IMVI
SR = tested on: SR
OVCAR-4 = tested on: OVCAR-4
A549 = tested on: A549
HCT-116 = tested on: HCT-116
786-0 = tested on: 786-0
SF-268 = tested on: SF-268
NCI-H226 = tested on: NCI-H226
NCI-H460 = tested on: NCI-H460
OVCAR-3 = tested on: OVCAR-3
T47D = tested on: T47D
CCRF-CEM = tested on: CCRF-CEM

`COC(=O)CCC(C)C1CCC2C3CCC4CC5CCC4(C)C3(O5)C(Br)C(Br)C12C` (stereo unspecified) was tested, and the GI50 (HCT-15) was greater than 100 µM, the GI50 (UO-31) was > 100 µM (inactive) and the GI50 (RPMI-8226) was 67.6 µM (inactive). For the same compound, the GI50 (K562) was > 100 µM (inactive), the GI50 (SK-MEL-28) was > 100 µM (inactive) and the GI50 (HT-29) was 56.2 µM (inactive). The GI50 (Malme-3M) was > 100 µM (inactive), the GI50 (A498) was > 100 µM (inactive) and the GI50 (PC-3) was > 100 µM (inactive). For the same compound, the GI50 (DU-145) was > 100 µM (inactive), the GI50 (M14) was > 100 µM (inactive) and the GI50 (MDA-MB-231) was > 100 µM (inactive). The GI50 (NCI-H522) was 48.2 µM (inactive), the GI50 (NCI/ADR-RES) was > 100 µM (inactive) and the GI50 (HOP-62) was > 100 µM (inactive). The GI50 (U-251) was > 100 µM (inactive), the GI50 (SW-620) was > 100 µM (inactive) and the GI50 (MOLT-4) was > 100 µM (inactive). The GI50 (SK-MEL-5) was 72.9 µM (inactive), the GI50 (CAKI-1) was > 100 µM (inactive) and the GI50 (IGROV-1) was > 100 µM (inactive). For the same compound, the GI50 (UACC-257) was > 100 µM (inactive), the GI50 (NCI-H23) was > 100 µM (inactive) and the GI50 (MDA-MB-435) was > 100 µM (inactive). For the same compound, the GI50 (OVCAR-8) was > 100 µM (inactive), the GI50 (SF-539) was 85.1 µM (inactive) and the GI50 (OVCAR-5) was > 100 µM (inactive). For the same compound, the GI50 (MCF7) was > 100 µM (inactive), the GI50 (SNB-19) was > 100 µM (inactive) and the GI50 (EKVX) was > 100 µM (inactive). For the same compound, the GI50 (ACHN) was > 100 µM (inactive), the GI50 (Hs-578T) was > 100 µM (inactive) and the GI50 (HOP-92) was > 100 µM (inactive). For the same compound, the GI50 (SK-MEL-2) was > 100 µM (inactive), the GI50 (UACC-62) was > 100 µM (inactive) and the GI50 (HL-60) was 2.55 µM (inactive). The GI50 (SNB-75) was > 100 µM (inactive), the GI50 (COLO 205) was > 100 µM (inactive) and the GI50 (SN12C) was > 100 µM (inactive). The GI50 (HCC 2998) was > 100 µM (inactive), the GI50 (BT-549) was > 100 µM (inactive) and the GI50 (TK-10) was > 100 µM (inactive). For the same compound, the GI50 (SF-295) was > 100 µM (inactive), the GI50 (MDA-N) was > 100 µM (inactive) and the GI50 (SK-OV-3) was > 100 µM (inactive). The GI50 (RXF 393) was > 100 µM (inactive), the GI50 (KM12) was > 100 µM (inactive) and the GI50 (LOX IMVI) was > 100 µM (inactive). For the same compound, the GI50 (SR) was > 100 µM (inactive), the GI50 (OVCAR-4) was > 100 µM (inactive) and the GI50 (A549) was > 100 µM (inactive). For the same compound, the GI50 (HCT-116) was 78.9 µM (inactive), the GI50 (786-0) was > 100 µM (inactive) and the GI50 (SF-268) was > 100 µM (inactive). The GI50 (NCI-H226) was 45.4 µM (inactive), the GI50 (NCI-H460) was > 100 µM (inactive) and the GI50 (OVCAR-3) was > 100 µM (inactive). The GI50 (T47D) was 61.9 µM (inactive).

With `CN(O)C(=O)Cc1ccc(OCc2cccc(Cl)c2)cc1` the GI50 (HCT-15) was greater than 100 µM, the GI50 (UO-31) was > 100 µM (inactive) and the GI50 (RPMI-8226) was > 100 µM (inactive). For the same compound, the GI50 (K562) was > 100 µM (inactive), the GI50 (SK-MEL-28) was > 100 µM (inactive) and the GI50 (HT-29) was > 100 µM (inactive). The GI50 (A498) was 1.23 µM (inactive), the GI50 (PC-3) was > 100 µM (inactive) and the GI50 (DU-145) was > 100 µM (inactive). For the same compound, the GI50 (M14) was > 100 µM (inactive), the GI50 (MDA-MB-231) was > 100 µM (inactive) and the GI50 (NCI-H522) was > 100 µM (inactive). For the same compound, the GI50 (NCI/ADR-RES) was > 100 µM (inactive), the GI50 (CCRF-CEM) was > 100 µM (inactive) and the GI50 (HOP-62) was > 100 µM (inactive). The GI50 (U-251) was > 100 µM (inactive), the GI50 (SW-620) was > 100 µM (inactive) and the GI50 (MOLT-4) was > 100 µM (inactive). For the same compound, the GI50 (SK-MEL-5) was > 100 µM (inactive), the GI50 (CAKI-1) was > 100 µM (inactive) and the GI50 (IGROV-1) was > 100 µM (inactive). The GI50 (UACC-257) was > 100 µM (inactive), the GI50 (NCI-H23) was > 100 µM (inactive) and the GI50 (MDA-MB-435) was > 100 µM (inactive). The GI50 (OVCAR-8) was > 100 µM (inactive), the GI50 (SF-539) was > 100 µM (inactive) and the GI50 (OVCAR-5) was > 100 µM (inactive). The GI50 (MCF7) was > 100 µM (inactive), the GI50 (SNB-19) was > 100 µM (inactive) and the GI50 (EKVX) was > 100 µM (inactive). The GI50 (ACHN) was > 100 µM (inactive), the GI50 (Hs-578T) was > 100 µM (inactive) and the GI50 (HOP-92) was > 100 µM (inactive). For the same compound, the GI50 (SK-MEL-2) was > 100 µM (inactive), the GI50 (UACC-62) was > 100 µM (inactive) and the GI50 (HL-60) was > 100 µM (inactive). For the same compound, the GI50 (SNB-75) was > 100 µM (inactive), the GI50 (COLO 205) was > 100 µM (inactive) and the GI50 (SN12C) was > 100 µM (inactive). For the same compound, the GI50 (HCC 2998) was > 100 µM (inactive), the GI50 (BT-549) was > 100 µM (inactive) and the GI50 (TK-10) was > 100 µM (inactive). For the same compound, the GI50 (SF-295) was > 100 µM (inactive), the GI50 (MDA-N) was > 100 µM (inactive) and the GI50 (SK-OV-3) was > 100 µM (inactive). The GI50 (RXF 393) was > 100 µM (inactive), the GI50 (KM12) was > 100 µM (inactive) and the GI50 (LOX IMVI) was > 100 µM (inactive). The GI50 (SR) was > 100 µM (inactive), the GI50 (OVCAR-4) was > 100 µM (inactive) and the GI50 (A549) was > 100 µM (inactive). The GI50 (HCT-116) was > 100 µM (inactive), the GI50 (786-0) was > 100 µM (inactive) and the GI50 (SF-268) was > 100 µM (inactive). The GI50 (NCI-H226) was > 100 µM (inactive), the GI50 (NCI-H460) was > 100 µM (inactive) and the GI50 (OVCAR-3) was > 100 µM (inactive). For the same compound, the GI50 (T47D) was 40.4 µM (inactive).
